Experiments:
Acremonium charticola = assay: Fungicidal activity, inhibition of mycelium growth on wort agar; type: cell-based
Source text: (§1) Man prüfte die funguzide Aktivität von Zink-bis-(N-vi- nyloxyethyl)dithiocarbamat gegenüber den reinen Pilzkulturen: Gladosporium resinae, Cladosporium cladosporioides, Acremonium corvum, Acremonium charticola, Penicillium charlesii Smith, Walrotiela subiculesa, Geotrichum candidum Link, Oidium, Penicillium crysogenum. Die genannten Pilze wurden von den Oberflächen der Wände und Decken von Bierbrauereien und Werken für die Herstellung von alkoholfreien Getränken ausgeschieden.
(§2) […] In eine der Petri-Schalen wurde Nährboden mit 1 ml Azeton (Kontrolle) gegossen.
(§3) In 18 bis 20 Stunden nach dem Vergießen des Nährbodens in die Petri-Schalen führte man die Inokulation der reinen Pilzkultur durch, die vorher an einem Schräg-Würzeagar während 15 Tage gezüchtet wurden. Die Inkubation führte man bei einer Temperatur von 25 bis 27°C während 5 Tage durch. Danach wurde der Durchmesser der Pilzkolonien gemessen und der Prozentsatz der Hemmung des Wachstums des Myzeliums (S) nach der Abbott -Formel gezählt: [formula] worin dc Durchmesser der Pilzkolonien in Kontrolle ist, de =Durchmesser der Pilzkolonien in einer Schale mit dem Nährboden ist, der Zink-bis-(N-vinyloxyethyl)dithiocarbamat enthält.

[1] = system: Cladosporium cladosporioides; assay: as above; type: cell-based
Source text: as §1, §2, §3

Penicillium chrysogenum = assay: as above; type: cell-based
Source text: as §1, §2, §3

Walrotiela subiculesa = assay: as above; type: cell-based
Source text: as §1, §2, §3

Acremonium corvum = assay: as above; type: cell-based
Source text: as §1, §2, §3

Geotrichum candidum Link = assay: as above; type: cell-based
Source text: as §1, §2, §3

[2] = system: Penicillium charlesii Smith; assay: as above; type: cell-based
Source text: as §1, §2, §3

Cladosporium resinae = assay: as above; type: cell-based
Source text: as §1, §2, §3

[3] = system: Schimmelpilzen, die die Bewachsung von Oberflächen hervorrufen; assay: Fungicidal activity, summary over all tested fungi; type: cell-based; conditions: day 5
Source text: as §1
Es wurden Lösungen des Zink-bis-(N-vinyloxyethyl)di- thiocarbamats im Azeton verschiedener Konzentration hergestellt, die so berechnet wurde, daß bei der Einführung vor 1 ml Lösung in 10 ml des geschmolzenen Würzeagars (45-50°C) die Konzentration des genannten Stoffes im Medium von 0,0015 bis 0,012% betrug. In eine der Petri-Schalen wurde Nährboden mit 1 ml Azeton (Kontrolle) gegossen.
as §3

[4] = Solubility in solvents (qualitative); conditions: for Löslichkeit im Alkohol: Alkohol (Ethylalkohol)
[5] = Storage stability (qualitative); type: physicochemical; conditions: result in words
p.Pseudomonas = assay: Bactericidal activity, growth on agar medium; type: cell-based; conditions: 37°C, 5 Tage
Description: (§4) Die bakterizide Aktivität des Kalium N-(vinyloxyethyl)-dithiocarbamats gegenüber den Bakterien, die von der Oberfläche von Wänden und Decken der Produktionsräume von Brauereien und Fabriken zur Herstellunq von alkoholfreien Getränken ausgeschieden wurden und die zu p.p.Bacillus, Micrococcus, Pseudomonas, Escherichiae gehören, wurde geprüft.
(§5) Es wurden wäßrige Lösungen des genannten Stoffes verschiedener Konzentration hergestellt, die so berechnet wurde, daß bei Einführung von 1 ml der Lösung in 25 ml geschmolzenen agarisierten Nährboden (45-50°C) die Konzentration des Stoffes im Nährboden von 0,003 bis 0,5% betrug. In 18 bis 24 Stunden wurde auf die Oberfläche des Nährbodens 0,1 ml der wäßrigen Suspension der eintägigen reinen Bakterienkulturen aufgetragen, die am Fleisch-Pepton-Agar gezüchtet wurden. Die Suspension wurde gleichmäßig verteilt. In Kontrollschalen wurden 0,1 ml Wasser auf der Oberfläche des Närhbodens verteilt.
(§6) Die Inkubation führte man bei einer Temperatur von 37°C während 5 Tage durch.
(§7) Die effektive Wirkung des Stoffes wurde nach dem Auftreten des Bakterienwachstums an der Oberfläche des Nährbodens bewertet.

p.Micrococcus = assay: Bactericidal activity, growth on agar medium; type: cell-based; conditions: 37°C, 5 Tage
Description: as §4, §5, §6, §7

p.Bacillus = assay: Bactericidal activity, growth on agar medium; type: cell-based; conditions: 37°C, 5 Tage
Description: as §4, §5, §6, §7

p. Escherichiae = assay: Bactericidal activity, growth on agar medium; type: cell-based; conditions: 37°C, 5 Tage
Description: as §4, §5, §6, §7

Oidium = assay: Fungicidal activity, inhibition of mycelium growth on wort agar; type: cell-based
Source text: as §1, §2, §3

weißen Mäusen = assay: Acute toxicity in white mice; conditions: perorale Einführung bei weißen Mäusen
[6] = Konzentration des Stoffes 0,01 %
[7] = Konzentration des Stoffes 0,1 % (0,10)
[8] = Konzentration des Stoffes 0,02 %
[9] = Konzentration des Stoffes 0,05 %
[10] = Konzentration des Stoffes 0,005 %
[11] = Konzentration des Stoffes 0,0015 %
[12] = Konzentration des Stoffes 0,003 %
[13] = Konzentration des Stoffes 0,006 %
[14] = Konzentration des Stoffes 0,012 %

Kupfer bis-(N-vinyloxyethyl) dithiocarbamat
Hemmung des Myzeliums am 5. Tag des Wachstums, Acremonium charticola (Acremonium charticola; [6]): 96%
Hemmung des Myzeliums am 5. Tag des Wachstums, Acremonium charticola (Acremonium charticola; [7]): 100%
Hemmung des Myzeliums am 5. Tag des Wachstums, Acremonium charticola (Acremonium charticola; [8]): 100%
Hemmung des Myzeliums am 5. Tag des Wachstums, Acremonium charticola (Acremonium charticola; [9]): 100%
Hemmung des Myzeliums am 5. Tag des Wachstums, Acremonium charticola (Acremonium charticola; [10]): 70%
Hemmung des Myzeliums am 5. Tag des Wachstums, Cladosporium cladosporioides [1, 6]: 36%
Hemmung des Myzeliums am 5. Tag des Wachstums, Cladosporium cladosporioides [1, 7]: 100%
Hemmung des Myzeliums am 5. Tag des Wachstums, Cladosporium cladosporioides [1, 8]: 65%
Hemmung des Myzeliums am 5. Tag des Wachstums, Cladosporium cladosporioides [1, 9]: 80%
Hemmung des Myzeliums am 5. Tag des Wachstums, Cladosporium cladosporioides [1, 10]: 15%
Hemmung des Myzeliums am 5. Tag des Wachstums, Penicillium chrysogenum (Penicillium chrysogenum; [6]): 25%
Hemmung des Myzeliums am 5. Tag des Wachstums, Penicillium chrysogenum (Penicillium chrysogenum; [7]): 100%
Hemmung des Myzeliums am 5. Tag des Wachstums, Penicillium chrysogenum (Penicillium chrysogenum; [8]): 36%
Hemmung des Myzeliums am 5. Tag des Wachstums, Penicillium chrysogenum (Penicillium chrysogenum; [9]): 70%
Hemmung des Myzeliums am 5. Tag des Wachstums, Penicillium chrysogenum (Penicillium chrysogenum; [10]): 10%
Hemmung des Myzeliums am 5. Tag des Wachstums, Walrotiela subiculesa (Walrotiela subiculesa; [6]): 0%
Hemmung des Myzeliums am 5. Tag des Wachstums, Walrotiela subiculesa (Walrotiela subiculesa; [7]): 100%
Hemmung des Myzeliums am 5. Tag des Wachstums, Walrotiela subiculesa (Walrotiela subiculesa; [8]): 10%
Hemmung des Myzeliums am 5. Tag des Wachstums, Walrotiela subiculesa (Walrotiela subiculesa; [9]): 37%
Hemmung des Myzeliums am 5. Tag des Wachstums, Walrotiela subiculesa (Walrotiela subiculesa; [10]): 0%
Hemmung des Myzeliums am 5. Tag des Wachstums, Acremonium corvum (Acremonium corvum; [6]): 100%
Hemmung des Myzeliums am 5. Tag des Wachstums, Acremonium corvum (Acremonium corvum; [7]): 100%
Hemmung des Myzeliums am 5. Tag des Wachstums, Acremonium corvum (Acremonium corvum; [8]): 100%
Hemmung des Myzeliums am 5. Tag des Wachstums, Acremonium corvum (Acremonium corvum; [9]): 100%
Hemmung des Myzeliums am 5. Tag des Wachstums, Acremonium corvum (Acremonium corvum; [10]): 100%
Hemmung des Myzeliums am 5. Tag des Wachstums, Geotrichum candidum Link (Geotrichum candidum Link; [6]): 100%
Hemmung des Myzeliums am 5. Tag des Wachstums, Geotrichum candidum Link (Geotrichum candidum Link; [7]): 100%
Hemmung des Myzeliums am 5. Tag des Wachstums, Geotrichum candidum Link (Geotrichum candidum Link; [8]): 100%
Hemmung des Myzeliums am 5. Tag des Wachstums, Geotrichum candidum Link (Geotrichum candidum Link; [9]): 100%
Hemmung des Myzeliums am 5. Tag des Wachstums, Geotrichum candidum Link (Geotrichum candidum Link; [10]): 100%
Hemmung des Myzeliums am 5. Tag des Wachstums, Penicillium charlesii Smith [2, 6]: 30%
Hemmung des Myzeliums am 5. Tag des Wachstums, Penicillium charlesii Smith [2, 7]: 100%
Hemmung des Myzeliums am 5. Tag des Wachstums, Penicillium charlesii Smith [2, 8]: 80%
Hemmung des Myzeliums am 5. Tag des Wachstums, Penicillium charlesii Smith [2, 9]: 100%
Hemmung des Myzeliums am 5. Tag des Wachstums, Penicillium charlesii Smith [2, 10]: 15%
Hemmung des Myzeliums am 5. Tag des Wachstums, Cladosporium resinae (Cladosporium resinae; [6]): 34%
Hemmung des Myzeliums am 5. Tag des Wachstums, Cladosporium resinae (Cladosporium resinae; [7]): 100%
Hemmung des Myzeliums am 5. Tag des Wachstums, Cladosporium resinae (Cladosporium resinae; [8]): 80%
Hemmung des Myzeliums am 5. Tag des Wachstums, Cladosporium resinae (Cladosporium resinae; [9]): 90%
Konzentration, bei der die Entwicklung aller untersuchten Pilze vollständig gehemmt wurde [3]: 0,1%
Löslichkeit im Alkohol [4]: bearenzt löslich
Löslichkeit im Azeton [4]: bearenzt löslich
Löslichkeit im Diethylether ([4]; Diethylether): nicht löslich
Löslichkeit im Dimethylsulfoxid [4]: gut löslich
Löslichkeit in Wasser [4]: bearenzt löslich
Lagerbeständigkeit [5]: lagerbeständig
Konzentration der Salze der N-(vinyloxyethyl)dithiocarbaminsäure (100%), die das Wachstum der Bakterien am 5. Tag des Wachstums hemmen, p.Pseudomonas (p.Pseudomonas): 0,15%
Konzentration der Salze der N-(vinyloxyethyl)dithiocarbaminsäure (100%), die das Wachstum der Bakterien am 5. Tag des Wachstums hemmen, p.Micrococcus (p.Micrococcus): 0,15%
Konzentration der Salze der N-(vinyloxyethyl)dithiocarbaminsäure (100%), die das Wachstum der Bakterien am 5. Tag des Wachstums hemmen, p.Bacillus (p.Bacillus): 0,15%
Konzentration der Salze der N-(vinyloxyethyl)dithiocarbaminsäure (100%), die das Wachstum der Bakterien am 5. Tag des Wachstums hemmen, p. Escherichiae (p. Escherichiae): 0,15%

Zink-bis-(N-vinyloxyethyl)dithiocarbamat
Hemmung des Myzeliums am 5. Tag des Wachstums, Acremonium charticola (Acremonium charticola; [11]): 50%
Hemmung des Myzeliums am 5. Tag des Wachstums, Acremonium charticola (Acremonium charticola; [12]): 100%
Hemmung des Myzeliums am 5. Tag des Wachstums, Acremonium charticola (Acremonium charticola; [13]): 100%
Hemmung des Myzeliums am 5. Tag des Wachstums, Acremonium charticola (Acremonium charticola; [14]): 100%
Hemmung des Myzeliums am 5. Tag des Wachstums, Cladosporium cladosporioides [1, 11]: 100%
Hemmung des Myzeliums am 5. Tag des Wachstums, Cladosporium cladosporioides [1, 12]: 100%
Hemmung des Myzeliums am 5. Tag des Wachstums, Cladosporium cladosporioides [1, 13]: 100%
Hemmung des Myzeliums am 5. Tag des Wachstums, Cladosporium cladosporioides [1, 14]: 100%
Hemmung des Myzeliums am 5. Tag des Wachstums, Penicillium chrysogenum (Penicillium chrysogenum; [11]): 10%
Hemmung des Myzeliums am 5. Tag des Wachstums, Penicillium chrysogenum (Penicillium chrysogenum; [12]): 40%
Hemmung des Myzeliums am 5. Tag des Wachstums, Penicillium chrysogenum (Penicillium chrysogenum; [13]): 80%
Hemmung des Myzeliums am 5. Tag des Wachstums, Penicillium chrysogenum (Penicillium chrysogenum; [14]): 100%
Hemmung des Myzeliums am 5. Tag des Wachstums, Walrotiela subiculesa (Walrotiela subiculesa; [11]): 52%
Hemmung des Myzeliums am 5. Tag des Wachstums, Walrotiela subiculesa (Walrotiela subiculesa; [12]): 100%
Hemmung des Myzeliums am 5. Tag des Wachstums, Walrotiela subiculesa (Walrotiela subiculesa; [13]): 100%
Hemmung des Myzeliums am 5. Tag des Wachstums, Walrotiela subiculesa (Walrotiela subiculesa; [14]): 100%
Hemmung des Myzeliums am 5. Tag des Wachstums, Oidium (Oidium; [11]): 80%
Hemmung des Myzeliums am 5. Tag des Wachstums, Oidium (Oidium; [12]): 100%
Hemmung des Myzeliums am 5. Tag des Wachstums, Oidium (Oidium; [13]): 100%
Hemmung des Myzeliums am 5. Tag des Wachstums, Oidium (Oidium; [14]): 100%
Hemmung des Myzeliums am 5. Tag des Wachstums, Acremonium corvum (Acremonium corvum; [11]): 40%
Hemmung des Myzeliums am 5. Tag des Wachstums, Acremonium corvum (Acremonium corvum; [12]): 100%
Hemmung des Myzeliums am 5. Tag des Wachstums, Acremonium corvum (Acremonium corvum; [13]): 100%
Hemmung des Myzeliums am 5. Tag des Wachstums, Acremonium corvum (Acremonium corvum; [14]): 100%
Hemmung des Myzeliums am 5. Tag des Wachstums, Geotrichum candidum Link (Geotrichum candidum Link; [11]): 29%
Hemmung des Myzeliums am 5. Tag des Wachstums, Geotrichum candidum Link (Geotrichum candidum Link; [12]): 100%
Hemmung des Myzeliums am 5. Tag des Wachstums, Geotrichum candidum Link (Geotrichum candidum Link; [13]): 100%
Hemmung des Myzeliums am 5. Tag des Wachstums, Geotrichum candidum Link (Geotrichum candidum Link; [14]): 100%
Hemmung des Myzeliums am 5. Tag des Wachstums, Penicillium charlesii Smith [2, 11]: 90%
Hemmung des Myzeliums am 5. Tag des Wachstums, Penicillium charlesii Smith [2, 12]: 100%
Hemmung des Myzeliums am 5. Tag des Wachstums, Penicillium charlesii Smith [2, 13]: 100%
Hemmung des Myzeliums am 5. Tag des Wachstums, Penicillium charlesii Smith [2, 14]: 100%
Hemmung des Myzeliums am 5. Tag des Wachstums, Cladosporium resinae (Cladosporium resinae; [11]): 37,5%
Hemmung des Myzeliums am 5. Tag des Wachstums, Cladosporium resinae (Cladosporium resinae; [12]): 100%
Hemmung des Myzeliums am 5. Tag des Wachstums, Cladosporium resinae (Cladosporium resinae; [13]): 100%
Hemmung des Myzeliums am 5. Tag des Wachstums, Cladosporium resinae (Cladosporium resinae; [14]): 100%
Konzentration, bei der die Entwicklung aller untersuchten Pilze vollständig gehemmt wurde [3]: 0,012%
Löslichkeit im Alkohol [4]: begrenzt
Löslichkeit im Azeton [4]: begrenzt
Löslichkeit im Dimethylsulfoxid [4]: gut
Löslichkeit in Wasser [4]: unlöslich
LD50 (weißen Mäusen): 1120 + 260 mg/kg
Konzentration der Salze der N-(vinyloxyethyl)dithiocarbaminsäure (100%), die das Wachstum der Bakterien am 5. Tag des Wachstums hemmen, p.Pseudomonas (p.Pseudomonas): 0,05%
Konzentration der Salze der N-(vinyloxyethyl)dithiocarbaminsäure (100%), die das Wachstum der Bakterien am 5. Tag des Wachstums hemmen, p.Micrococcus (p.Micrococcus): 0,05%
Konzentration der Salze der N-(vinyloxyethyl)dithiocarbaminsäure (100%), die das Wachstum der Bakterien am 5. Tag des Wachstums hemmen, p.Bacillus (p.Bacillus): 0,05%
Konzentration der Salze der N-(vinyloxyethyl)dithiocarbaminsäure (100%), die das Wachstum der Bakterien am 5. Tag des Wachstums hemmen, p. Escherichiae (p. Escherichiae): 0,05%

— patent publication EP0256125A1, “MEANS FOR PREVENTING MICROBIOLOGICAL OVERGROWING OF HARD SURFACE” (priority 1985, dated 1987)
